Drawing on patent US10370343B2, “[6,6] Fused bicyclic HDAC8 inhibitors” (FORMA Therapeutics, Inc., priority 2015, dated 2019), this text covers IC50 for 25 compounds.

This test deals with T1, Recombinant N-terminal GST tag full-length human HDAC8 (Homo sapiens, UniProt Q9BY41).
T1 construct: Recombinant N-terminal GST tag full-length human HDAC8; purchased SignalChem H90-30G-1000; host or cells: baculovirus in Sf9 insect cells
T1 sequence (Q9BY41 1-377): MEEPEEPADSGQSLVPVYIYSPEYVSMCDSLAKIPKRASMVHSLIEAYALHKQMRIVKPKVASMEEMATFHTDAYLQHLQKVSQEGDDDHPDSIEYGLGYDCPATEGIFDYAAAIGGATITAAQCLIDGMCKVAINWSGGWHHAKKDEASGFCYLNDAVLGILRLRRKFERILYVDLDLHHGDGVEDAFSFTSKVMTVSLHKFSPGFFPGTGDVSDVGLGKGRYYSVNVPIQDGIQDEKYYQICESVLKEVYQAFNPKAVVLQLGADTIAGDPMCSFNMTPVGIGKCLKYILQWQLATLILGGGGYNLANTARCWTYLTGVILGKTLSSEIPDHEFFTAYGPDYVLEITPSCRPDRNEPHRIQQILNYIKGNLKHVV
Description: HDAC8 probe binding assay, time resolved fluorescence (TRF) format. The note with it: compounds grouped by IC50 range (Table 2). Here is the method:
The HDAC8 probe binding assay was performed using a time resolved fluorescence (TRF) assay format. Recombinant N-terminal GST tag full-length human HDAC8 was expressed and purified from baculovirus in Sf9 insect cells (SignalChem, #[…]-1000). […] Plates were incubated for 16 hours at room temperature before time resolved fluorescence was read on the Envision (Excitation at 340 nm, and Emission at 485 nm and 535 nm, Perkin Elmer). Data from HDAC8 Assays were reported as percent inhibition (inh) compared with control wells based on the following equation: % inh=1-((FLU-AveLow)/(AveHigh-AveLow)) where FLU=measured time resolved fluorescence. AveLow=average time resolved fluorescence of no enzyme control (n=32). AveHigh=average time resolved fluorescence of DMSO control (n=32). IC50 values were determined by curve fitting of the standard 4 parameter logistic fitting algorithm included in the Activity Base software package: IDBS XE Designer Model205. Data is fitted using the Levenburg Marquardt algorithm. Ranges of IC50 values for compounds of the invention are disclosed in Table 2: Table 2. provides the compounds arranged according to […] determined in a time resolved fluorescence (TRF) assay. The compounds are separated into four groups: […]

Each structure is given as a SMILES string.

With `COCCOc1ccc(CN2C(=O)COc3ccc(C(=O)NO)cc32)cc1` [Compound I-196, N-hydroxy-4-(4-(2-methoxyethoxy)benzyl)-3-oxo-3,4-dihydro-2H-benzo[b][1,4]oxazine-6-carboxamide], the IC50 was ≤ 25 nM.

Consider `COCCOc1cccc(CN2C(=O)COc3ccc(C(=O)NO)cc32)c1` [Compound I-197, N-hydroxy-4-(3-(2-methoxyethoxy)benzyl)-3-oxo-3,4-dihydro-2H-benzo[b][1,4]oxazine-6-carboxamide], for which the IC50 was ≤ 25 nM.

Consider `O=C(NO)c1ccc2c(c1)N(CC1CCN(c3ccccc3)CC1)C(=O)CO2` [Compound I-198, N-hydroxy-3-oxo-4-((1-phenylpiperidin-4-yl)methyl)-3,4-dihydro-2H-benzo[b][1,4]oxazine-6-carboxamide], for which the IC50 fell in the range of 25 to 100 nM.

As for `O=C(NO)c1ccc2c(c1)N(Cc1c[nH]c3ccccc13)C(=O)CO2` [Compound I-200, 4-((1H-indol-3-yl)methyl)-N-hydroxy-3-oxo-3,4-dihydro-2H-benzo[b][1,4]oxazine-6-carboxamide], the IC50 lay in the range of 25 to 100 nM.

In the case of `N#Cc1c(CN2C(=O)COc3ccc(C(=O)NO)cc32)cn2ccccc12` [Compound I-201, 4-((1-cyanoindolizin-2-yl)methyl)-N-hydroxy-3-oxo-3,4-dihydro-2H-benzo[b][1,4]oxazine-6-carboxamide], the IC50 is ≤ 25 nM.

On to `O=C(NO)c1ccc2c(c1)N(Cc1nc(-c3ccccc3)co1)C(=O)CO2` [Compound I-202, N-hydroxy-3-oxo-4-((4-phenyloxazol-2-yl)methyl)-3,4-dihydro-2H-benzo[b][1,4]oxazine-6-carboxamide], for which the IC50 was ≤ 25 nM.

For the compound `O=C(NO)c1ccc2c(c1)N(Cc1n[nH]c3ccccc13)C(=O)CO2` [Compound I-203, 4-((1H-indazol-3-yl)methyl)-N-hydroxy-3-oxo-3,4-dihydro-2H-benzo[b][1,4]oxazine-6-carboxamide], the IC50 is 25 to 100 nM.

Consider `O=C(NO)c1ccc2c(c1)N(Cc1cc(-c3ccccc3)[nH]n1)C(=O)CO2` [Compound I-204, N-hydroxy-3-oxo-4-[(5-phenyl-1H-pyrazol-3-yl)methyl]-3,4-dihydro-2H-1,4-benzoxazine-6-carboxamide], for which the IC50 was ≤ 25 nM.

Turning to `O=C(NO)c1ccc2c(c1)N(Cc1cn(-c3ccccc3)cn1)C(=O)CO2` [Compound I-205, N-hydroxy-3-oxo-4-((1-phenyl-1H-imidazol-4-yl)methyl)-3,4-dihydro-2H-benzo[b][1,4]oxazine-6-carboxamide], the IC50 fell in the range of 25 to 100 nM.

Consider `O=C(NO)c1ccc2c(c1)N(Cc1cnn(C3CC3)c1)C(=O)CO2` [Compound I-206, 4-((1-cyclopropyl-1H-pyrazol-4-yl)methyl)-N-hydroxy-3-oxo-3,4-dihydro-2H-benzo[b][1,4]oxazine-6-carboxamide], for which the IC50 is 25 to 100 nM.

For the compound `Cc1cnc2sc(CN3C(=O)COc4ccc(C(=O)NO)cc43)nc2c1` [Compound I-207, N-hydroxy-4-((6-methylthiazolo[5,4-b]pyridin-2-yl)methyl)-3-oxo-3,4-dihydro-2H-benzo[b][1,4]oxazine-6-carboxamide], the IC50 was ≤ 25 nM.

For the compound `COc1cnc2sc(CN3C(=O)COc4ccc(C(=O)NO)cc43)nc2c1` [Compound I-208, N-hydroxy-4-((6-methoxythiazolo[5,4-b]pyridin-2-yl)methyl)-3-oxo-3,4-dihydro-2H-benzo[b][1,4]oxazine-6-carboxamide], the IC50 was ≤ 25 nM.

Turning to `O=C(NO)c1ccc2c(c1)N(Cc1nc3cc(Cl)cnc3s1)C(=O)CO2` [Compound I-209, 4-((6-chlorothiazolo[5,4-b]pyridin-2-yl)methyl)-N-hydroxy-3-oxo-3,4-dihydro-2H-benzo[b][1,4]oxazine-6-carboxamide], the IC50 is ≤ 25 nM.

Turning to `Cc1ccc2nc(CN3C(=O)COc4ccc(C(=O)NO)cc43)sc2n1` [Compound I-210, N-hydroxy-4-((5-methylthiazolo[5,4-b]pyridin-2-yl)methyl)-3-oxo-3,4-dihydro-2H-benzo[b][1,4]oxazine-6-carboxamide], the IC50 was ≤ 25 nM.

In the case of `COc1ccc2nc(CN3C(=O)COc4ccc(C(=O)NO)cc43)sc2n1` [Compound I-211, N-hydroxy-4-((5-methoxythiazolo[5,4-b]pyridin-2-yl)methyl)-3-oxo-3,4-dihydro-2H-benzo[b][1,4]oxazine-6-carboxamide], the IC50 was ≤ 25 nM.

On to `O=C(NO)c1ccc2c(c1)N(Cc1nc3ccc(C(F)(F)F)nc3s1)C(=O)CO2` [Compound I-212, N-hydroxy-3-oxo-4-((5-(trifluoromethyl)thiazolo [5,4-b]pyridin-2-yl)methyl)-3,4-dihydro-2H-benzo[b][1,4]oxazine-6-carboxamide], for which the IC50 was 25 to 100 nM.

For the compound `O=C(NO)c1ccc2c(c1)N(Cc1ccncc1)C(=O)CO2` [Compound I-215, N-hydroxy-3-oxo-4-(pyridin-4-ylmethyl)-3,4-dihydro-2H-benzo[b][1,4]oxazine-6-carboxamide], the IC50 was in the range of 25 to 100 nM.

`O=C(NO)c1ccc2c(c1)N(Cc1cccc(Oc3ccccc3)c1)C(=O)CO2` [Compound I-220, N-hydroxy-3-oxo-4-(3-phenoxybenzyl)-3,4-dihydro-2H-benzo[b][1,4]oxazine-6-carboxamide]: the IC50 was ≤ 25 nM.

Take `CC1(C)Oc2ccc(C(=O)NO)cc2N(Cc2cccc(Oc3ccccc3)c2)C1=O` [Compound I-225, N-hydroxy-2,2-dimethyl-3-oxo-4-(3-phenoxybenzyl)-3,4-dihydro-2H-benzo[b][1,4]oxazine-6-carboxamide]: the IC50 was 25 to 100 nM.

For `O=C(NO)c1ccc2c(c1)N(Cc1cccc(Oc3ccc(Cl)cc3)c1)C(=O)CO2` [Compound I-226, 4-(3-(4-chlorophenoxy)benzyl)-N-hydroxy-3-oxo-3,4-dihydro-2H-benzo[b][1,4]oxazine-6-carboxamide], the IC50 was ≤ 25 nM.

`CC1(C)Oc2ccc(C(=O)NO)cc2N(Cc2cccc(Oc3ccc(Cl)cc3)c2)C1=O` [Compound I-227, 4-(3-(4-chlorophenoxy)benzyl)-N-hydroxy-2,2-dimethyl-3-oxo-3,4-dihydro-2H-benzo[b][1,4]oxazine-6-carboxamide]: the IC50 was ≤ 25 nM.

On to `O=C(NO)c1ccc2c(c1)N(Cc1ccc(Oc3ccccc3)cc1)C(=O)CO2` [Compound I-229, N-hydroxy-3-oxo-4-(4-phenoxybenzyl)-3,4-dihydro-2H-benzo[b][1,4]oxazine-6-carboxamide], for which the IC50 was 25 to 100 nM.

In the case of `O=C(NO)c1ccc2c(c1)N(Cc1cccc3ccccc13)C(=O)CO2` [Compound I-230, N-hydroxy-4-(naphthalen-1-ylmethyl)-3-oxo-3,4-dihydro-2H-benzo[b][1,4]oxazine-6-carboxamide], the IC50 was 25 to 100 nM.

As to `O=C(NO)c1ccc2c(c1)N(Cc1ccc3ncccc3c1)C(=O)CO2` [Compound I-231, N-hydroxy-3-oxo-4-(quinolin-6-ylmethyl)-3,4-dihydro-2H-benzo[b][1,4]oxazine-6-carboxamide], the IC50 is ≤ 25 nM.

For the compound `O=C(NO)c1ccc2c(c1)N(Cc1ccc3ccccc3n1)C(=O)CO2` [Compound I-232, N-hydroxy-3-oxo-4-(quinolin-2-ylmethyl)-3,4-dihydro-2H-benzo[b][1,4]oxazine-6-carboxamide], the IC50 was ≤ 25 nM.
